Here are results for 8 compounds from ChEMBL document CHEMBL1201862, “PubChem BioAssay data set” (2004).

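Grown in 96-well plates, cells were treated for 48 hours with each compound at five concentrations. Insufficient inhibition: endpoint recorded as highest concentration tested. GI50: concentration for 50% inhibition of growth.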 Active and inactive are the calls of the source. Rule as the data show it: active = GI50 up to about 1.1 µM and inactive = higher. Bounds are passed on as bounds.

Among the test systems are EKVX; Hs-578T; MOLT-4; SNB-19; IGROV-1; HOP-92; DU-145; SW-620; MCF7; SNB-75; OVCAR-5; A549; A498; T47D; SK-MEL-28; NCI-H226; SK-MEL-5; RXF 393; HCC 2998; SF-268.
Holding throughout (assay): growth of human tumour cells (NCI), 48 h

Turning to `O=C(CN1CCNCCN(CC(=O)N2CCCCC2)CCNCC1)N1CCCCC1`, the GI50 with EKVX is > 100 µM (inactive); in the test on Hs-578T it was > 100 µM (inactive); in the test with MOLT-4 it was 84.7 µM (inactive); in the test with SNB-19, > 100 µM (inactive); with IGROV-1 it was 33.5 µM (inactive); in the test with HOP-92, > 100 µM (inactive). In addition, the GI50 in the test on DU-145 is > 100 µM (inactive); with SW-620, 58.2 µM (inactive); with MCF7, > 100 µM (inactive); in the test with SNB-75, > 100 µM (inactive); in the test with OVCAR-5, > 100 µM (inactive); in the test with A549 it was 50.8 µM (inactive). The GI50 was > 100 µM (inactive) in the test with A498; > 100 µM (inactive) in the test with T47D; > 100 µM (inactive) in the test with SK-MEL-28; > 100 µM (inactive) in the test with NCI-H226; 71.8 µM (inactive) in the test with SK-MEL-5.
As to `Brc1ccc(-c2[nH]c3ccccc3c2/C=N\Nc2ccc(-c3nc4ccccc4[nH]3)cc2)cc1`, the GI50 with Hs-578T, in the test on MOLT-4, with SNB-19, in the test with IGROV-1, in the test on RXF 393 and with DU-145 was < 0.01 µM (active) throughout. Moreover, the GI50 is < 0.01 µM (active) in the test with SW-620; < 0.0171 µM (active) with MCF7; < 0.01 µM (active) in the test on HCC 2998; < 0.0448 µM (active) with OVCAR-5; < 0.01 µM (active) in the test on A549; < 0.01 µM (active) in the test on SF-268. The GI50 in the test on T47D is > 56.4 µM (inactive); with NCI-H226, < 0.01 µM (active); with SK-MEL-5 it was < 0.01 µM (active).
Consider `CC(=O)NNc1nc(-c2ccc([N+](=O)[O-])cc2)c(C#N)c(=O)n1C`, for which the GI50 is 38 µM (inactive) in the test on EKVX; 27.1 µM (inactive) in the test with Hs-578T; 36.8 µM (inactive) with MOLT-4; > 100 µM (inactive) in the test on SNB-19; 16.8 µM (inactive) in the test on IGROV-1; 13.5 µM (inactive) in the test with HOP-92. The GI50 was 57 µM (inactive) in the test with RXF 393; 34.2 µM (inactive) with DU-145; 33.4 µM (inactive) with SW-620; 28.5 µM (inactive) with MCF7; 18.9 µM (inactive) in the test on SNB-75; 27.5 µM (inactive) in the test on OVCAR-5. Moreover, the GI50 is > 100 µM (inactive) in the test with A549; 25.5 µM (inactive) in the test on A498; 33.1 µM (inactive) with SF-268; > 100 µM (inactive) in the test with T47D; > 100 µM (inactive) with SK-MEL-28; > 100 µM (inactive) with SK-MEL-5.
In the case of `CN1CCCN(C)C1c1cc([N+](=O)[O-])ccc1O`, the GI50 with EKVX was 38.6 µM (inactive); in the test with Hs-578T, 26.1 µM (inactive); with MOLT-4, 22.1 µM (inactive); in the test with SNB-19 it was 30.8 µM (inactive); with IGROV-1, 26.3 µM (inactive); in the test with HOP-92, 20.2 µM (inactive). The GI50 is 41.4 µM (inactive) in the test on RXF 393; 36.9 µM (inactive) with DU-145; 70.6 µM (inactive) in the test on SW-620; 19.8 µM (inactive) in the test on MCF7; 31.1 µM (inactive) in the test with SNB-75; > 100 µM (inactive) in the test with OVCAR-5. The GI50 with A549 was > 100 µM (inactive); in the test on A498, > 100 µM (inactive); with SF-268, 34.2 µM (inactive); with T47D, 47.6 µM (inactive); in the test on SK-MEL-28 it was 27.9 µM (inactive); in the test on NCI-H226, 34.1 µM (inactive). In addition, the GI50 in the test with SK-MEL-5 was 19.7 µM (inactive).
For the compound `CC(C)(C)OC(=O)N1C(=O)OC[C@@H]2C=C[C@@H]21`, the GI50 with EKVX, in the test on Hs-578T, in the test on MOLT-4, in the test on SNB-19, in the test on IGROV-1 and in the test on HOP-92 was > 100 µM (inactive) each time. In addition, the GI50 with RXF 393, in the test on DU-145, in the test with SW-620, in the test with MCF7, in the test on OVCAR-5 and with A549 was > 100 µM (inactive) each time. Moreover, the GI50 with A498, with SF-268, with T47D, in the test with SK-MEL-28 and in the test with SK-MEL-5 was > 100 µM (inactive) in each case.
For `CCOC(=O)c1c(-c2ccc(Cl)cc2)c(C#N)c(=S)n(C2OC(COC(C)=O)C(OC(C)=O)C(OC(C)=O)C2OC(C)=O)c1-c1ccccc1` (centres undefined), the GI50 with Hs-578T is > 100 µM (inactive); in the test with MOLT-4, > 100 µM (inactive); in the test on SNB-19, > 100 µM (inactive); in the test on IGROV-1 it was > 100 µM (inactive); with HOP-92, 12.7 µM (inactive); in the test on RXF 393, > 100 µM (inactive). Further, the GI50 in the test on DU-145 was > 100 µM (inactive); in the test with SW-620, > 100 µM (inactive); with MCF7 it was > 100 µM (inactive); in the test on HCC 2998, > 100 µM (inactive); in the test on SNB-75 it was 21.6 µM (inactive); in the test with OVCAR-5, > 100 µM (inactive). The GI50 was > 100 µM (inactive) in the test on A549; > 100 µM (inactive) with SF-268; > 100 µM (inactive) in the test with T47D; > 100 µM (inactive) in the test with SK-MEL-28; 28 µM (inactive) in the test with SK-MEL-5.
On to `Cc1ccc(S(=O)(=O)n2ccn3c(=O)cc(C)nc23)cc1`, for which the GI50 was > 10 µM (inactive) with EKVX; 8.59 µM (inactive) in the test with Hs-578T; > 10 µM (inactive) in the test on MOLT-4; > 10 µM (inactive) in the test on SNB-19; > 10 µM (inactive) with IGROV-1; > 10 µM (inactive) with HOP-92. Also, the GI50 with RXF 393, with DU-145, in the test on SW-620, in the test on MCF7, in the test on SNB-75 and in the test on OVCAR-5 was > 10 µM (inactive) each time. The GI50 with A549, in the test with A498, in the test on SF-268, in the test with T47D, in the test on SK-MEL-28 and in the test with NCI-H226 was > 10 µM (inactive) each time. In addition, in the test on SK-MEL-5, the GI50 was > 10 µM (inactive).
On to `C=CCN1C(=O)C=C(c2ccccc2)n2ncc3cccc1c32`, for which the GI50 was 95.5 µM (inactive) with EKVX; > 100 µM (inactive) in the test on Hs-578T; > 100 µM (inactive) with MOLT-4; > 100 µM (inactive) with SNB-19; > 100 µM (inactive) in the test with IGROV-1; 27.7 µM (inactive) with HOP-92. Besides, the GI50 was > 100 µM (inactive) with DU-145; > 100 µM (inactive) in the test with SW-620; > 100 µM (inactive) in the test on MCF7; > 100 µM (inactive) with OVCAR-5; > 100 µM (inactive) in the test with A549; 44.3 µM (inactive) in the test on A498. In addition, the GI50 with SF-268 was > 100 µM (inactive); in the test on T47D, 18.2 µM (inactive); with SK-MEL-28, > 100 µM (inactive); in the test on NCI-H226 it was > 100 µM (inactive); in the test on SK-MEL-5, 81.5 µM (inactive).
